In series [1] the test system is HeLa cells. In words: Luciferase expression after SecNLuc mRNA transfection (Nano-Glo). The format is cell-based, human.
The test system of series [2] is MC3T3 cells. The description is as above. The format is cell-based, murine. The protocol:
(§1) Peptide-mRNA polyplexes were formulated as previously described.[40],[41] In short, two separate stock solutions of mRNA and peptide were prepared in MQ and simultaneously dispensed with electronically dispensing pipettes (E4 Electronic Pipette, LTS E4-100XLS+, Mettler-Toledo Rainin, LLC, Oakland, CA, USA) at a flow rate of 11 mL min^–1. All polyplexes were formed at a concentration of at least 10-fold the final intended concentration for transfections.
One day before mRNA transfections, 10 000 MC3T3 cells in 100 μL were seeded in 96-well plates (Greiner Bio-One Cat. No. 655180) or 20 000 cells in 200 μL in μ-slide eight-well chambers (Ibidi, Gräfelfing, Germany). These seeding densities ensured confluency between ∼70 and 90% on the day of transfection. mRNA transfections were performed by removing the complete medium from the wells and replacing it with mRNA nanoparticles diluted 10 times in complete medium. Cells were exposed to mRNA nanoparticles for 2 h at 37 °C, 5% CO2, in a humidified incubator. […]
The extent of luciferase production was determined using the Nano-Glo Luciferase Assay (Promega, Madison, WI, USA, Cat No. N1130) according to the manufacturer’s instructions. […] Luminescence was measured after briefly shaking the plate using the VICTOR X3Multilabel Plate Reader (PerkinElmer, Waltham, MA, USA).

Series [3] is described as follows: Heparin-mediated polyplex decomplexation assay (QuantiFluor RNA). The settings on record: N/P 1 and 3, low or high heparin amounts; Figure S8. The class given is physicochemical. As to the method: For testing the stability of mRNA polyplexes, a polyanion decomplexation assay, mediated by the polyanionic heparin (heparin sodium salt from porcine intestinal mucosa, Cat. No. H3149-100 KU, Sigma-Aldrich) was performed. mRNA polyplexes were freshly prepared with uncapped SecNLuc mRNA (RIBOPRO), as described in the section mRNA Nanoparticle Formation. Following polyplex formation, all samples were incubated for at least 30 min at room temperature. Importantly, separate stock solutions of heparin were made to ensure an equal volume across conditions regardless of heparin concentration. For decomplexation, 5 μL of 10× polyplexes were diluted in RNase-free TE-buffer at pH 7.5 (Promega, Cat. No. E260A) supplemented with an equal volume of heparin across conditions to a total volume of 50 μL in a 384-well plate (Greiner Bio-One, Cat. No. 781101). All samples were quickly spun down before incubation at 37 °C for 90 min. The QuantiFluor RNA System (Promega, Cat. No. E3310) was used with a 1:2000 dilution of RNA-binding dye for all tested conditions to detect released mRNA. For quantification, a calibration curve with uncapped SecNLuc mRNA was made, spanning from 0.19 ng mRNA/well to 50 ng mRNA/well. For detection of released mRNA, the dye was excited at 485 nm, and emission was collected at 535 nm using the VICTOR X3Multilabel Plate Reader (PerkinElmer)
Data analysis was performed using GraphPad Prism (GraphPad Software, version 8.4.2, San Diego, CA, USA). Data are presented as means ± standard deviation (SD) unless stated otherwise. Means were calculated by first averaging the technical replicates, for which outliers were identified using Grubbs’ test, followed by averaging the biological replicates. Before statistical analysis, all data were checked for normal distribution with a Shapiro–Wilk test. Statistical analysis was done using one- or two-way analysis of variance (ANOVA). Multiple comparisons were corrected using Tukey’s test with 95% confidence intervals. For the mRNA standard curve used in heparin decomplexation assays, the coefficient of variation was determined both in the standards and in samples and was ≤20%. The standard curve was fitted using a sigmoidal four-parameter logistic curve. The standard curve was back fitted with ±10% accuracy to verify the correctness of the fit. The signals from samples were blanked with the appropriate solution (TE buffer) before calculating interpolations. p > 0.05 was considered not significant, and p values were reported using the GraphPad Prism style (*p ≤ 0.05, **p ≤ 0.01, ***p ≤ 0.001, and ****p ≤ 0.0001).

Series [4] concerns MC3T3 cells. In words: eGFP protein expression after mRNA transfection, live-cell confocal microscopy. The format is cell-based, murine. The conditions noted are these: N/P 3, eGFP mRNA, 24 h post-transfection. The protocol:
as §1
(§2) One day before mRNA transfections, 10 000 MC3T3 cells in 100 μL were seeded in 96-well plates (Greiner Bio-One Cat. No. 655180) or 20 000 cells in 200 μL in μ-slide eight-well chambers (Ibidi, Gräfelfing, Germany). These seeding densities ensured confluency between ∼70 and 90% on the day of transfection. mRNA transfections were performed by removing the complete medium from the wells and replacing it with mRNA nanoparticles diluted 10 times in complete medium. Cells were exposed to mRNA nanoparticles for 2 h at 37 °C, 5% CO2, in a humidified incubator. For some experiments, cells were stained with 200 μL of 1 μM CellTrace yellow (Thermo Fisher Scientific, Cat. No. C34567) directly after the nanoparticle incubation, according to the manufacturer’s instructions. Regardless of the tested N/P ratio or type of nanoparticle, mRNA inputs were equalized across conditions, resulting in 107 ng/well for luciferase assays in 96-well plate formats and 214 ng/well for confocal microscopy experiments. […] For untreated controls, complete cell culture medium was added and refreshed as often as in the experimental conditions.
Before microscopy, complete medium containing phenol red was replaced with an equal volume of phenol red-free and HEPES-formulated Opti-MEM (Gibco). The uptake of Cy5-eGFP mRNA-formulated nanoparticles was assessed 2 h post-transfection, and eGFP expression was assessed 24 h post-transfection. […] All laser lines were generated by a white-light laser, and emissions were detected with hybrid detectors. […]

Series [5] concerns MC3T3 cells. As to the kind of experiment: Cellular uptake of Cy5-eGFP mRNA polyplexes, live-cell confocal microscopy. The format is cell-based, murine. The protocol: as §1, §2
Before microscopy, complete medium containing phenol red was replaced with an equal volume of phenol red-free and HEPES-formulated Opti-MEM (Gibco). The uptake of Cy5-eGFP mRNA-formulated nanoparticles was assessed 2 h post-transfection, and eGFP expression was assessed 24 h post-transfection. Live-cell imaging was performed using a Leica TCS SP8 SMD (Leica Microsystems, Mannheim, Germany) with an HC PL APO CS2 63×/1.20 water objective and a temperature-controlled stage at 36.5 °C. eGFP was excited at 488 nm (emission: 500–550 nm). CellTrace yellow was excited at 555 nm (emission: 570–620 nm), and Cy5 was excited at 633 nm (emission: 650–690 nm). All laser lines were generated by a white-light laser, and emissions were detected with hybrid detectors. All channels were sequentially acquired to avoid crosstalk at a bit depth of 12. Except for the LMM eGFP conditions (reduced gain), equal acquisition settings (pixel size, pinhole, laser power, and gain) per fluorophore were used within the experiments.
Quantification of the Cy5 fluorescence was performed as previously described.[59],[60] In brief, five separate images (unless stated otherwise) containing approximately 10 cells per image were analyzed using ImageJ (version 1.53f51). A square mask of 184.52 μm^2 was used to quantify the raw integrated density (sum of all pixels in a region of interest). Importantly, cell confluencies ranged from ∼80–95%, ensuring minimal impact of cell density on total fluorescence values. The brightness and contrast of the images were adjusted to find a cell-free region to determine background fluorescence. Then, a circle was drawn to measure the background fluorescence. To obtain the corrected total cellular fluorescence (CTCF), the area (in pixels) was multiplied by the mean gray value of the background and subsequently subtracted from the raw integrated density.

A short description of series [6]: Dynamic light scattering of peptide-mRNA nanoparticles. The class given is physicochemical. The conditions noted are these: hLF-v1 mRNA polyplexes, context: upon polymerization; N/P not printed at the place; DLS 25 °C, no serum. As to the method: as §1
The hydrodynamic diameter of the nanoparticles was measured at 25 °C by dynamic light scattering (DLS) using a Zetasizer Nano ZS (Malvern Instruments, Worcestershire, UK) equipped with a 4 mW He–Ne laser (633 nm) with a backscatter detection angle of 173°. At least 40 μL of 10 times concentrated nanoparticle solution was measured in a UV-cuvette (BrandTech Scientific, Essex, CT, USA, Cat. No. 759200).

Positions of bridges follow the written chain, without caps; N, C: chain ends. No end group written: not given here.

With “KCFQWLRNLRKVRALLVSCLKR (disulfide 2-19 (inferred)) [poly hLF-v1, polymeric hLF-v1]”, the “luciferase expression” value in series [1] (N/P 3, compared to untreated) is on record as “significant luciferase expression”. Also, in series [1] (N/P 5), the “luciferase expression higher than PF14” value is recorded as about 5%. Moreover, in series [2] (MC3T3, N/P 5), the “luciferase expression as fraction of PF14-induced expression” value is “approximately half”. Also, the “difference in heparin decomplexation” value in series [3] is reported as “no difference”. For the same sequence, the “eGFP protein expression” value in series [4] is given as “successful delivery”.
As to KCFQWQRNMRKVRGPPVSCIKR [hLF-WT], the “luciferase activity” value in series [2] (MC3T3, independent of the N/P ratio (3 or 5)) is reported as “no activity”. The “ratio of Poly hLF-x vs Mono-hLF-x, Corrected Total Cellular Fluorescence (Cy5)” value in series [5] (Cy5-eGFP mRNA polyplexes, 2 h post-transfection, n = 5 fields of view per condition) stood at 2.33 x. In addition, the “cellular uptake of Cy5-labeled eGFP mRNA” value in series [5] (N/P 3 polyplexes (LMM lipoplexes), 2 h post-transfection, complete medium with 10% FBS, confocal, Figure 1, five independent experiments) is “only little uptake”. Further, in series [4], the “eGFP protein expression” value is “no expression”.
Consider “KCFQWLRNLRKVRALLVSCLKR [hLF-v1, amphipathic hLF variant with PF14 motifs and the same cationic amino acids as hLF-WT]”, for which the “effect of oligomerization on uptake” value in series [5] (2 h incubation, Cy5-labeled mRNA, polymerized vs monomeric, Figure 5, Figure S5) is “no benefit for uptake”. The “uptake of Cy5-labeled mRNA polyplexes of amphipathic hLF variants” value in series [5] (2 h incubation, live-cell confocal microscopy, serum present, Figure 5, four independent experiments) is “performed the worst and tended to aggregate upon polymerization”. Besides, the “monodisperse particle size by DLS” value in series [6] was determined as 72 ± 2.1 nm. In addition, the “eGFP protein expression” value in series [4] is reported as “fewer cells were positive for eGFP expression than for PF14”.

The record behind these values is PMC10587869, “Deciphering Structural Determinants Distinguishing Active from Inactive Cell-Penetrating Peptides for Cytosolic mRNA Delivery” (Bioconjugate Chemistry, 2023).
